Measurements as given in US9968570B2, “Compositions and methods for treating cancer” (Chemo-Enhanced LLC, priority 2013, dated 2018).

What was measured:
CaOV3 cells = assay: Confocal microscopy of C6-NBD ceramide entry into ovarian cancer cells; assay type: cell-based, human; conditions: for effect on C6 ceramide entry into the cells: CaOV3 cells pretreated with inhibitor, C6-NBD-ceramide; for effect on polarized entry of C6 ceramide: CaOV3 cells pretreated 1 h, then C6-NBD
Protocol: (A and C) CaOV3 cells were cultured in 8-well chamber slides and treated with C6-NBD ceramide (6 μg/ml). (B) The cells were fixed with formaldehyde at various times following treatment or were treated with the indicated doses of C6-NBD-ceramide, with or without fixation. The cells were processed and observed under a confocal microscope.
CaOV3 cells were cultured in 8-well chamber slides and treated with or without (A) a lipid raft/caveolae inhibitor or with (B) water channel inhibitors, CuSO4 or NiCl2. The cells were fixed with formaldehyde, processed and observed under a confocal microscope.
(A) CaOV3 cells were cultured in 8-well chamber slides, pretreated with taxol or doxorubicin for 1 h and then treated with C6-NBD-ceramide for 5 or 15 min. The cells were fixed with formaldehyde and processed for confocal microscopy. (B) The cells were pretreated with taxol and then C6-NBD-ceramide and processed for confocal microscopy without fixation.
The cells were plated in eight-well chamber slides (Lab-Tek; Nalge Nunc International, Naperville, Ill., USA) and treated with various reagents, including C6-NBD ceramide, taxol and CuSO4. Next, the cells were either left untreated or were fixed for 20 min in fresh 4% paraformaldehyde-PBS. The cell nuclei were also stained with Hoechst (1 μg/ml in PBS) for 10 min. The slides were mounted with anti-fade (Life Technologies, Grand Island, N.Y., USA) and stored in the dark until viewing. The samples were observed under a confocal microscope and images were captured by Zen 2009 Light Edition (Carl Zeiss AG, Oberkochen, Germany).

MIA-PaCa2 (MIA) cells = assay: MTT cell viability assay, C6-Ceramide with chemo agents; assay type: cell-based, human; conditions: MIA cells (FIG. 6C), basic DMEM; Gemcitabine 3 μg/ml, Taxol 15 ug/ml, C6-Ceramide 10 ug/ml, Cetuximab 10 ug/ml
Protocol: (§1) Mitomycin C (10 ug/ml) was always present in the media to prevent cell proliferation from occurring.
(§2) Cell viability was measured by the 3-(4,5-dimethylthiazol-2-yl)-2,5-diphenyltetrazolium bromide (MTT) method, as described previously (Cao, C., et al. Sci Signal, 2: ra17, 2009; and Vanhaesebroeck, B., et al. Annu Rev Biochem, 70: 535-602, 2001). Briefly, the cells were collected and seeded in 96-well plate at a density of 2×10^5 cells/cm^2. Different seeding densities were optimized at the beginning of the experiments. After overnight incubation cells were exposed to fresh medium containing indicated reagents at 37° C. After incubation for different time periods, 20 μl of MTT tetrazolium (Sigma, St. Louis, Mo.) salt dissolved in Hank's balanced salt solution at a concentration of 5 mg/ml was added to each well and incubated in a CO2 incubator for an additional 4 hours. The medium was subsequently aspirated from each well and 150 μl of DMSO (Sigma, St. Louis, Mo.) was added to dissolve formazan crystals and the absorbance of each well was obtained using a Dynatech MR5000 plate reader at a test wavelength of 490 nm with a reference wavelength of 630 nm.

Panc-1 = assay: as above; assay type: cell-based, human; conditions: Panc-1 (FIG. 6B), basic DMEM; Gemcitabine 3 μg/ml, Taxol 15 ug/ml, C6-Ceramide 10 ug/ml, Cetuximab 10 ug/ml
Protocol: as §1, §2

AKT/mTORC1 and ERK = assay: Western blot of AKT/mTORC1 and ERK activation in L3.6 cells; assay type: cell-based, human; conditions: 2-6 h, Gemcitabine 1 μg/ml, Taxol 1.5 μg/ml, C6 Ceramide 10 μg/ml
From the text: Antibody binding was detected with the enhanced chemiluminescence (ECL) detection system (Amersham Biosciences, Piscataway, N.J.).

[1] = system: L3.6 pancreatic cancer cells; assay: MTT cell viability assay, C6-Ceramide / chemo agents / pathway inhibitors; assay type: cell-based, human; conditions: L3.6 (FIG. 6A), basic DMEM; Gemcitabine 3 μg/ml, Taxol 15 ug/ml, C6-Ceramide 10 ug/ml, Cetuximab 10 ug/ml
L3.6 pancreatic cells = assay type: in vivo; conditions: for tumor volume and mouse survival: Taxol 3 mg/kg, C6-Ceramide 10 mg/kg, I.P. 3x/wk, vs control treatment group
Protocol: SCID/Beige/Taconic nude male mice, 22-25 g, 6-8 weeks old were ear tagged and randomized into 4 different groups (Control, Ceramide, Paclitaxel, Ceramide+Paclitaxel) of 5 mice each prior to inoculation s.c. with 2×10^6 L3.6 cells in a volume 0.1 ml into the internal surface of the right thigh. Treatment was started 4 days after L3.6 cell injection with thrice weekly (3×/wk) intraperitoneal (I.P.) injections of Paclitaxel 3.0 mg/kg with or without C6-Ceramide (10 mg/kg) for 2 weeks. Mice survival (A and C), tumor volume (in cm^3) (B), mice body weight (in grams) were recorded (E). Average rate of tumor development was calculated by total tumor volume dividing by total number of days monitored (D).
FIG. 7A and FIG. 7D: SCID/Beige/Taconic nude male mice, 22-25 g, 6-8 weeks old were ear tagged and randomized into 4 different groups (Control, Ceramide, Gemcitabine, Ceramide+Gemcitabine) combining 5 mice each prior to inoculation s.c. with 2×10^6 L3.6 cells in a volume 0.1 ml into the internal surface of the right thigh. Treatment was started 4 days after L3.6 cell injection with thrice weekly (3×/wk) intraperitoneal (I.P.) injections of Gemcitabine (two doses: […]) with or without C6-Ceramide ([…]) for 2 weeks. […] Mice survival (A, B and E) and tumor volume (in cm^3) (C and D) were recorded (E). In (E), the left bar indicates treatment without C6, and the right bar indicates treatment with C6.
SCID/Beige/Taconic male mice were inoculated with 2×10^6 L3.6 pancreatic cells and begun treatment 4 days post tumor implant with thrice weekly (3×/wk) intraperitoneal (I.P.) injections of Paclitaxel (Taxol) 3.0 mg/kg or Gemcitabine (Gem) 10 mg/kg—after treatment and were autopsied when near death (as per IRB committee). Mouse survival, tumor volume (in cm^3), and body weight (in grams) were recorded. Average rate of tumor development was calculated by dividing total tumor volume by total number of days monitored.

[2] = system: L3.6 pancreatic cancer cells; assay: MTT cell viability assay, C6-Ceramide / chemo agents / pathway inhibitors; assay type: cell-based, human; conditions: 48 h; for cell death: MTT; for L3.6 cell viability, agent alone: LY 294002 1 μM, rapamycin 100 nM, U0126 1 μg/ml, Gemcitabine 1 μg/ml
Protocol: L3.6 pancreatic cancer cells, cultured either in basic DMEM medium or with 10% FBS, were treated with indicated doses of Taxol in the presence or absence of C6 Ceramide (10 μg/ml) for 48 hours, cell viability was detected by MTT assay (FIGS. 4A and B). L3.6 cells, cultured either in basic DMEM medium or with 10% FBS, were treated with indicated dose of C6 Ceramide in the presence or absence of Taxol (1.5 μg/ml) for 48 hours, cell viability was detected by MTT assay as described (FIGS. 4C and D). Mitomycin C (10 μg/ml) was always present in the media to prevent cell proliferation from occurring. The data represent the mean±SD of at least triplicate experiments. *P<0.05 versus group without C6 Ceramide presents (FIGS. 4A and B). **P<0.05 versus group without Taxol presents (C and D).
as §1
FIG. 9 depicts data showing the effect of survival pathway inhibitors on cytotoxicity of Taxol and Gemcitabine in L3.6 pancreatic tumor cells. L3.6 cells were pretreated with various inhibitors including PI3K/AKT inhibitor LY 294002 (LY, 1 μM), mTORC1 inhibitor rapamycin (100 nM), MEK/ERK inhibitor U0126 (1 μg/ml), alone or in the presence of Taxol (1.5 μg/ml) or Gemcitabine (1 μg/ml) for 48 hours, with cell death detected 48 hours later (FIG. 9, left). Effects of various inhibitors as mentioned above on AKT/mTORC1 and ERK activation were also examined by Western blots using commercially available antibodies (FIG. 9, right). *P<0.05 versus group without C6 Ceramide presents. […] In FIG. 9, left panel, the DMSO=left bar; LY294002=second left bar; U0126=middle bar; Rapamycin=second right bar; and LY+U0126=right bar.
as §2

[3] = L3.6, basic DMEM medium, Taxol 1.5 ug/ml, C6-ceramide 10 ug/ml
[4] = L3.6 cultured in 10% FBS, C6-Ceramide 2.5 μg/ml, Taxol 1.5 μg/ml

SMILES	effect on C6 ceramide entry into the cells (CaOV3 cells)	cell death (MIA-PaCa2 (MIA) cells)	cell death (Panc-1)	cell death [1]	L3.6 cell viability, agent alone ([2]; Taxol 1.5 μg/ml)	further results
[Cl][Ni][Cl] [NiCl2]	does not	–	–	–	–	–
COc1cccc2c1C(=O)c1c(O)c3c(c(O)c1C2=O)C[C@@](O)(C(=O)CO)C[C@@H]3O[C@H]1C[C@H](N)[C@H](O)[C@H](C)O1 [doxorubicin]	–	–	–	–	–	effect on polarized entry of C6 ceramide (CaOV3 cells): had no such effect
CCCCCCCCCCCCC/C=C/[C@@H](O)[C@H](CO)NC(=O)CCCCC [Fraction C6-ceramide, N-hexanoyl-D-sphingosine]	–	None of Gemcitabine (3 μg/ml), Taxol (15 ug/ml) or C6-Ceramide (10 ug/ml) alone had a significant effect	None of Gemcitabine (3 μg/ml), Taxol (15 ug/ml) or C6-Ceramide (10 ug/ml) alone had a significant effect	None of Gemcitabine (3 μg/ml), Taxol (15 ug/ml) or C6-Ceramide (10 ug/ml) alone had a significant effect	–	AKT/mTORC1 and ERK activation (AKT/mTORC1 and ERK): moderate inhibition; tumor volume and mouse survival (L3.6 pancreatic cells): minimal effects on tumor volume and mouse survival; cell death [2, 3]: no effect; cell death [2, 4]: neither of these two alone had any measurable effect
CC(=O)O[C@H]1C(=O)[C@@]2(C)[C@H]([C@H](OC(=O)c3ccccc3)[C@]3(O)C[C@H](OC(=O)[C@H](O)[C@@H](NC(=O)c4ccccc4)c4ccccc4)C(C)=C1C3(C)C)[C@]1(OC(C)=O)CO[C@@H]1C[C@@H]2O [Taxol, paclitaxel]	–	None of Gemcitabine (3 μg/ml), Taxol (15 ug/ml) or C6-Ceramide (10 ug/ml) alone had a significant effect	None of Gemcitabine (3 μg/ml), Taxol (15 ug/ml) or C6-Ceramide (10 ug/ml) alone had a significant effect	None of Gemcitabine (3 μg/ml), Taxol (15 ug/ml) or C6-Ceramide (10 ug/ml) alone had a significant effect	little or no significant effect	effect on polarized entry of C6 ceramide (CaOV3 cells): disrupted the polarized pattern of C6 entry; tumor volume and mouse survival (L3.6 pancreatic cells): minimal effects on tumor volume and mouse survival; cell death [2, 3]: 30%; cell death [2, 4]: neither of these two alone had any measurable effect
O=S(=O)([O-])[O-].[Cu+2] [CuSO4]	inhibits C6 ceramide entry into the cells	–	–	–	–	–
CCCCC[C@@H](O)[C@H]1C(=O)O[C@H](C)[C@@H](O)/C=C/C=C/C=C/C=C/C=C(\C)[C@@H](O)C[C@H](O)C[C@H](O)C[C@H](O)C[C@H](O)C[C@H](O)C[C@@H]1O [Filipin]	inhibited the C6 ceramide entry into the CaOV3 cells	–	–	–	–	–
Nc1ccn([C@@H]2O[C@H](CO)[C@@H](O)C2(F)F)c(=O)n1 [Gemcitabine, gemcitabine]	–	None of Gemcitabine (3 μg/ml), Taxol (15 ug/ml) or C6-Ceramide (10 ug/ml) alone had a significant effect	None of Gemcitabine (3 μg/ml), Taxol (15 ug/ml) or C6-Ceramide (10 ug/ml) alone had a significant effect	None of Gemcitabine (3 μg/ml), Taxol (15 ug/ml) or C6-Ceramide (10 ug/ml) alone had a significant effect	little or no significant effect	AKT/mTORC1 and ERK activation (AKT/mTORC1 and ERK): no effect; survival and tumor growth (L3.6 pancreatic cells; Gemcitabine 5 mg/kg and 10 mg/kg, C6-ceramide 10 mg/kg, I.P. 3x/wk for 2 weeks): limited effect on survival and tumor growth
N#CC(=C(N)Sc1ccccc1N)C(C#N)=C(N)Sc1ccccc1N [Fraction U0126, 1,4-diamino-2,3-dicyano-1,4-bis[2-aminophenylthio]butadiene]	–	–	–	–	little or no significant effect	–
